# Patent US9205091B2, “Diazeniumdiolated compounds, pharmaceutical compositions, and method of treating cancer” (The United States of America, as represented by the …, priority 2009, dated 2015)
# Tests used:
# H1373 = assay: CellTiter 96 MTT cell proliferation assay (Example 9); assay type: cell-based, human
# Procedure: (§1) Cell lines derived from human non-small cell lung cancers are obtained from American Type Culture Collection (ATCC, Manassas, Va.), and are designated by their NCI numbers. Cells are maintained in RPMI 1640 medium (Gibco, Invitrogen, Carlsbad, Calif.), supplemented with 10% fetal calf serum (Gemini Bio-Products, Sacramento, Calif.), 100 U/mL penicillin/streptomycin, and 2 mM glutamine at 37° C. and 5% CO2.
# (§2) For proliferation assays cells are seeded at 2×10^4/well in 96-well plates, allowed to adhere for 24 hrs, and then are treated with the drug or DMSO as a control for 48 hours. […] Compounds are prepared as 10 mM stock solution in dimethyl sulfoxide (Sigma, St. Louis, Mo.). Increasing drug concentrations in 10 μL of phosphate-buffered saline (PBS) are added to 100 μL of the culture medium and incubated at 37° C. for 72 h. The CellTiter 96 non-radioactive cell proliferation assay (MTT assay, Promega, Madison, Wis.), is performed according to the manufacturer's protocol. Each compound concentration is represented in six repeats, and the screening is performed as at least two independent experiments. IC50 values are calculated using Sigma Plot software (Systat Software).
# H1703 = assay: as above; assay type: cell-based, human
# Procedure: as §1, §2
# H1944 = assay: as above; assay type: cell-based, human
# Procedure: as §1, §2
# H2122 = assay: as above; assay type: cell-based, human
# Procedure: as §1, §2
# H441 = assay: as above; assay type: cell-based, human
# Procedure: as §1, §2
# H1703 cells [1] = assay: Total glutathione / GSSG content after JS-K treatment; assay type: cell-based, human; details: JS-K 1 μM, 1 h
# Procedure: (§3) H1703 or H1944 cells are plated in 6-well plates at 6×10^5 per well. Cells are treated with JS-K for 1 h at 1 μM (H1703) or 10 μM (H1944). After treatment, cells are washed with PBS, scraped into PBS and collected by centrifugation at 800 g for 10 min. The pellets are resuspended in 80 μL of 10 mM HCl and lysed by two successive rounds of freeze and thawing. Twenty μL of a 5% 5-sulfosalicylic acid solution is added to the lysate. The precipitate is removed by centrifugation at 8,000 g for 10 min, and the supernatant is analyzed for total glutathione content using total glutathione quantification kit (Dojindo, Rockville, Md.) according to the manufacturer's protocol. To measure GSSG concentration, cells are treated and lysed in accordance with the procedure above. The lysate is then neutralized with 0.1 M NaOH and treated with 4-vinylpyridine at a final concentration of 50 mM for 30 min.
# H1944 cells [2] = assay: as above; assay type: cell-based, human; details: JS-K 10 μM, 1 h
# Procedure: as §3
# H1703 cells [3] = assay: H1703 xenograft in athymic NCr-nu/nu mice, JS-K (Example 3); assay type: in vivo; details: 6 μmol/kg i.v., three times a week for three weeks
# Procedure: (§4) H1944 or H1703 cells are injected at 5×10^6 s.c. into a flank of 7-week-old female athymic NCr-nu/nu mice (Charles River, Wilmington, Mass.). The drug injections are initiated when the tumors reached 2×2×2 mm (typically 3-4 weeks). JS-K is formulated in Pluronic P123 (P123) (BASF, Florham Park, N.J.) micelles. Animals are treated three times a week for three weeks with i.v. tail vein injections of either vehicle (2.25% P123 in PBS) or JS-K (6 μmol/kg in the vehicle). Tumors are measured using a caliper twice a week, and the tumor volumes are calculated using a formula for ellipsoid volume, π/6×L×W×H (Tomayko and Reynolds, 1989). The non-parametric Mann-Whitney test is utilized for statistical comparisons of tumor volumes at each time point. Body weights are taken before each drug injection. Animals are sacrificed 2 h after the last drug injection. Blood is collected by cardiac puncture under isoflurane anesthesia, for testing for cytokines. Cytokines in serum are measured using a mouse Th1/2 multiplex assay (Meso Scale Discovery, Gaithersburg, Md.), according to the manufacturer's protocol. There were 9-13 mice/group at termination.
# H1944 cells [4] = assay: H1944 xenograft in athymic NCr-nu/nu mice, JS-K (Example 3); assay type: in vivo; details: 6 μmol/kg i.v., three times a week for three weeks
# Procedure: as §4
# [5] = Body weight of xenograft mice, JS-K (Example 3); assay type: in vivo; details: 6 μmol/kg i.v., three times a week for three weeks
# Procedure: as §4
# H1703 cells [6] = assay: H1703 xenograft in athymic NCr-nu/nu mice, tumor weights (Example 10); assay type: in vivo; details: 6 micromols/kg i.v., three times a week for three weeks
# Procedure: H1703 cells are harvested at 80% confluence, washed with PBS, and suspended in PBS. The cells are injected at 5×10^6 s.c. into a flank of 7-week-old female athymic NCr-nu/nu mice (Charles River). […] Animals are treated three times a week for three weeks with i.v. tail vein injections of either vehicle (2.25% P-123 in PBS) or 1 or 2 (6 micromols/kg in the vehicle) or 6 (8 micromols/kg). Body weights are taken before each drug injection. Animals are sacrificed two hours after the last drug injection and the tumors are excised and weighed. There are 13-15 mice/group at termination. The non-parametric Mann-Whitney test is utilized for statistical comparisons of tumor weights.
# H1703 cells [7] = assay: Intracellular ROS/RNS, CM-H2DCF-DA (DCF fluorescence); assay type: cell-based, human; details: up to 60 min
# Procedure: (§5) Intracellular level of reactive oxygen/nitrogen species is quantified by the oxidation of the ROS/RNS-sensitive fluorophore 5-(and-6)-chloromethyl-2′,7′-dichlorodihydrofluorescein diacetate (CM-H2DCF-DA) (Invitrogen, Carlsbad, Calif.). Cells growing on 6-well plates (6×10^5/well) are loaded with 5 μM CM-H2DCF-DA in Hanks' balanced salt solution (HBSS) at 37° C. and 5% CO2. After 30 min of incubation, HBSS containing the probe is removed, cells are rinsed with HBSS and 3 mL of fresh HBSS is added to each well followed by addition of JS-K or DMSO as a control. After 30 min or 60 min the cells are collected by scraping in HBSS and 2′,7′-dichlorofluorescein (DCF) fluorescence is measured using a Perkin Elmer LS50B luminescence spectrometer with the excitation source at 488 nm and emission at 530 nm.
# H1944 cells [8] = assay: as above; assay type: cell-based, human; details: up to 60 min
# Procedure: as §5
# mitochondrial superoxide = assay: Mitochondrial superoxide level, MitoSOX; assay type: cell-based, human
# Procedure: Mitochondrial superoxide level is measured using MitoSOX fluorescent dye (Invitrogen, Carlsbad, Calif.), according to the manufacturer's protocol. Rotenone (10 μM) is used as a positive control.
smiles,measurement,setting,value
CCOC(=O)N1CCN(/[N+]([O-])=N/Oc2ccc([N+](=O)[O-])cc2[N+](=O)[O-])CC1 [Compound 1],IC50,H1373,0.86 µM
same,IC50,H1703,0.57 µM
same,IC50,H1944,> 10 µM
same,IC50,H2122,3.17 µM
same,IC50,H441,0.94 µM
same,GSH μmol/mg protein,H1703 cells [1],1.27 μmol/mg protein
same,GSSG μmol/mg protein,H1703 cells [1],0.042 μmol/mg protein
same,GSH μmol/mg protein,H1944 cells [2],0.13 μmol/mg protein
same,GSSG μmol/mg protein,H1944 cells [2],0.014 μmol/mg protein
same,growth of xenografted tumor cells vs vehicle,H1703 cells [3],significantly reduces growth
same,growth of xenografted tumor cells vs vehicle,H1944 cells [4],significantly reduces growth
same,effect on body weight,[5],did not affect body weight
same,growth of H1703 human NSCLC cells in vivo vs vehicle,H1703 cells [6],significantly reduced growth
same,reduction of the tumor weights,H1703 cells [6]; vs vehicle,49%
same,DCF-reactive material,H1703 cells [7],increase
same,DCF-reactive material,H1944 cells [8],not
same,mitochondrial superoxide generation,mitochondrial superoxide,increase
